Experimental data from ChEMBL document CHEMBL4840338, “Cudraflavone C from Artocarpus hirsutus as a Promising Inhibitor of Pathogenic, Multidrug-Resistant S. aureus, Persisters, and Biofilms: A New Insight into a Rational Explanation of Traditional Wisdom” (J Nat Prod, 2021).
In brackets after ≈: the same amount, converted by molar mass. Activity calls are given as the source filed them. The calls are words filed in the database; no cut-off is given here.

How the values were obtained:
[1] = test system: Staphylococcus aureus; assay: Antibacterial activity against vancomycin-resistant Staphylococcus aureus VRS12 assessed as bacterial growth inhibition incubated for 16 to 18 hrs by broth microdilution method; assay type: functional; conditions: time 16-18 hrs
[2] = test system: Staphylococcus aureus; assay: Antibacterial activity against Staphylococcus aureus ATCC 29213 assessed as reduction in bacterial growth at sub-MIC incubated for more than 40 days; assay type: functional, organism-based; conditions: time day >40
[3] = test system: Klebsiella pneumoniae; assay: Antibacterial activity against Klebsiella pneumoniae BAA-1705 assessed as bacterial growth inhibition incubated for 16 to 18 hrs by broth microdilution method; assay type: functional; conditions: time 16-18 hrs
[4] = test system: Staphylococcus aureus; assay: Antibacterial activity against methicillin-resistant Staphylococcus aureus NRS 10129 assessed as bacterial growth inhibition incubated for 16 to 18 hrs by broth microdilution method; assay type: functional; conditions: time 16-18 hrs
[5] = test system: Staphylococcus aureus; assay: Antibacterial activity against Staphylococcus aureus ATCC 29213 assessed as bacterial growth inhibition in presence of linezolid incubated for 24 hrs by checkerboard assay; assay type: functional
[6] = test system: Escherichia coli; assay: Antibacterial activity against Escherichia coli ATCC 25922 assessed as bacterial growth inhibition incubated for 16 to 18 hrs by broth microdilution method; assay type: functional; conditions: time 16-18 hrs
[7] = test system: Staphylococcus aureus; assay: Antibacterial activity against Staphylococcus aureus ATCC 29213 assessed as time for post-antibiotic effect at 10XMIC incubated for 1 hr followed by drug wash-out and measured every single 1 hr; assay type: functional
[8] = test system: Staphylococcus aureus; assay: Antibacterial activity against methicillin-resistant Staphylococcus aureus NRS 10100 assessed as bacterial growth inhibition incubated for 16 to 18 hrs by broth microdilution method; assay type: functional; conditions: time 16-18 hrs
[9] = test system: Enterococcus; assay: Antibacterial activity against vancomycin-resistant Enterococcus NR 31903 assessed as bacterial growth inhibition incubated for 16 to 18 hrs by broth microdilution method; assay type: functional; conditions: time 16-18 hrs
[10] = test system: Enterococcus; assay: Antibacterial activity against vancomycin-susceptible Enterococcus NR 31884 assessed as bacterial growth inhibition incubated for 16 to 18 hrs by broth microdilution method; assay type: functional; conditions: time 16-18 hrs
[11] = test system: Staphylococcus aureus; assay: Antibacterial activity against vancomycin-resistant Staphylococcus aureus VRS1 assessed as bacterial growth inhibition incubated for 16 to 18 hrs by broth microdilution method; assay type: functional; conditions: time 16-18 hrs
[12] = test system: Staphylococcus aureus; assay: Antibacterial activity against methicillin-resistant Staphylococcus aureus NRS 10119 assessed as bacterial growth inhibition incubated for 16 to 18 hrs by broth microdilution method; assay type: functional; conditions: time 16-18 hrs
[13] = test system: Enterococcus; assay: Antibacterial activity against vancomycin-resistant Enterococcus NR 31909 assessed as bacterial growth inhibition incubated for 16 to 18 hrs by broth microdilution method; assay type: functional; conditions: time 16-18 hrs
[14] = test system: Pseudomonas aeruginosa; assay: Antibacterial activity against Pseudomonas aeruginosa ATCC 27853 assessed as bacterial growth inhibition incubated for 16 to 18 hrs by broth microdilution method; assay type: functional; conditions: time 16-18 hrs
[15] = test system: Staphylococcus aureus; assay: Synergistic bactericidal activity against Staphylococcus aureus ATCC 29213 assessed as reduction in bacterial load at 1X MIC preincubated for 6 hrs in presence of gentamycin followed by subculturing on TSA plate for 18 to 20 hrs by time-kill assay; assay type: functional; conditions: time 24-26 hrs
[16] = test system: Staphylococcus aureus; assay: Antibacterial activity against Staphylococcus aureus ATCC 29213 assessed as fractional inhibitory concentration in presence of minocycline incubated for 24 hrs by checkerboard assay; assay type: functional
[17] = test system: Staphylococcus aureus; assay: Antibacterial activity against Staphylococcus aureus ATCC 29213 assessed as bacterial growth inhibition in presence of meropenem incubated for 24 hrs by checkerboard assay; assay type: functional
[18] = test system: Escherichia coli; assay: Antibacterial activity against Escherichia coli ATCC 25922 assessed as bacterial growth inhibition in presence of outermembrane permeabilizer, PMBN incubated for 16 to 18 hrs by broth microdilution method; assay type: functional; conditions: time 16-18 hrs
[19] = test system: Staphylococcus aureus; assay: Antibacterial activity against Staphylococcus aureus ATCC 29213 assessed as bacterial growth inhibition in presence of vancomycin incubated for 24 hrs by checkerboard assay; assay type: functional
[20] = test system: Staphylococcus aureus; assay: Bactericidal activity against Staphylococcus aureus ATCC 29213 assessed as reduction in bacterial load at 10X MIC preincubated for 6 hrs followed by subculturing on TSA plate for 18 to 20 hrs by time-kill assay; assay type: functional; design: scale not given: the % may be the effect or the level left; conditions: time 24-26 hrs
[21] = test system: Staphylococcus aureus; assay: Bactericidal activity against Staphylococcus aureus ATCC 29213 assessed as reduction in bacterial load at 10X MIC preincubated for 1 hr followed by subculturing on TSA plate for 18 to 20 hrs by time-kill assay; assay type: functional; conditions: time 19-21 hrs
[22] = test system: Staphylococcus aureus; assay: Antibacterial activity against methicillin-resistant Staphylococcus aureus NRS 10194 assessed as bacterial growth inhibition incubated for 16 to 18 hrs by broth microdilution method; assay type: functional; conditions: time 16-18 hrs
[23] = test system: Enterococcus; assay: Antibacterial activity against vancomycin-susceptible Enterococcus NR 31886 assessed as bacterial growth inhibition incubated for 16 to 18 hrs by broth microdilution method; assay type: functional; conditions: time 16-18 hrs
[24] = test system: Staphylococcus aureus; assay: Synergistic antibacterial activity against multidrug-resistant methicillin resistant Staphylococcus aureus NRS 10119 assessed as reduction in bacterial load at 1X MIC preincubated for 24 hrs in presence of gentamycin followed by subculturing on TSA plate for 18 to 20 hrs by time-kill assay; assay type: functional; conditions: time 42-44 hrs
[25] = test system: Staphylococcus aureus; assay: Antibacterial activity against Staphylococcus aureus ATCC 29213 assessed as time for increase by 1 log10CFU at 10XMIC incubated for 1 hr followed by drug wash-out and measured every single 1 hr; assay type: functional
[26] = test system: Staphylococcus aureus; assay: Synergistic antibacterial activity against Staphylococcus aureus ATCC 29213 assessed as fractional inhibitory concentration in presence of gentamycin incubated for 24 hrs by checkerboard assay; assay type: functional
[27] = test system: Enterococcus; assay: Antibacterial activity against vancomycin-susceptible Enterococcus NR 31885 assessed as bacterial growth inhibition incubated for 16 to 18 hrs by broth microdilution method; assay type: functional; conditions: time 16-18 hrs
[28] = test system: Enterococcus; assay: Antibacterial activity against Enterococcus NR 31884 assessed as bacterial growth inhibition incubated for 16 to 18 hrs by broth microdilution method; assay type: functional; conditions: time 16-18 hrs
[29] = test system: Staphylococcus aureus; assay: Antibiofilm activity against Staphylococcus aureus ATCC 29213 assessed as reduction in preformed bacterial biofilm at 1XMIC incubated for 24 hrs by crystal violet staining based microtiter plate reader assay; assay type: functional
[30] = test system: Acinetobacter baumannii; assay: Antibacterial activity against Acinetobacter baumannii BAA-1605 ssessed as bacterial growth inhibition in presence of outermembrane permeabilizer, PMBN incubated for 16 to 18 hrs by broth microdilution method; assay type: functional; conditions: time 16-18 hrs
[31] = test system: Staphylococcus aureus; assay: Antibacterial activity against Staphylococcus aureus ATCC 29213 infected in mouse J774.A1 assessed as reduction in intracellular bacterial burden at 5XMIC incubated for 24 hrs followed by replating on TSA plate for 24 hrs by intracellular killing assay; assay type: functional; conditions: time 48 hrs
[32] = test system: Staphylococcus aureus; assay: Antibacterial activity against vancomycin-resistant Staphylococcus aureus VRS4 assessed as bacterial growth inhibition incubated for 16 to 18 hrs by broth microdilution method; assay type: functional; conditions: time 16-18 hrs
[33] = test system: Enterococcus; assay: Antibacterial activity against vancomycin-resistant Enterococcus NR 31912 assessed as bacterial growth inhibition incubated for 16 to 18 hrs by broth microdilution method; assay type: functional; conditions: time 16-18 hrs
[34] = test system: Staphylococcus aureus; assay: Antibacterial activity against Staphylococcus aureus ATCC 29213 assessed as bacterial growth inhibition in presence of minocycline incubated for 24 hrs by checkerboard assay; assay type: functional
[35] = test system: Staphylococcus aureus; assay: Antibacterial activity against Staphylococcus aureus ATCC 29213 assessed as bacterial growth inhibition in presence of rifampicin incubated for 24 hrs by checkerboard assay; assay type: functional
[36] = test system: Staphylococcus aureus; assay: Antibacterial activity against methicillin-resistant Staphylococcus aureus NRS 10198 assessed as bacterial growth inhibition incubated for 16 to 18 hrs by broth microdilution method; assay type: functional; conditions: time 16-18 hrs
[37] = test system: Staphylococcus aureus; assay: Antibacterial activity against Staphylococcus aureus ATCC 29213 assessed as fractional inhibitory concentration in presence of ceftazidime incubated for 24 hrs by checkerboard assay; assay type: functional
[38] = test system: Staphylococcus aureus; assay: Antibacterial activity against Staphylococcus aureus ATCC 29213 assessed as fractional inhibitory concentration in presence of levofloxacin incubated for 24 hrs by checkerboard assay; assay type: functional

In the case of `CC(C)=CCc1c(O)cc2oc(-c3ccc(O)cc3O)c(CC=C(C)C)c(=O)c2c1O` [CUDRAFLAVONE C], the MIC [1] is reported as 4 µg/mL (≈ 9.47 µM), the Activity [2] is reported as “Active” and the MIC [3] is reported as over 64 µg/mL. The MIC [4] was 4 µg/mL (≈ 9.47 µM), the MIC [5] was 2 µg/mL and the MIC [6] was over 64 µg/mL. It also gave a Time [7] of over 22 h, an MIC [8] of 4 µg/mL (≈ 9.47 µM) and an MIC [9] of 4 µg/mL (≈ 9.47 µM). The MIC [10] was 4 µg/mL (≈ 9.47 µM), the MIC [11] was 4 µg/mL (≈ 9.47 µM) and the MIC [12] was 4 µg/mL (≈ 9.47 µM). It also gave an MIC [13] of 4 µg/mL (≈ 9.47 µM), an MIC [14] of over 64 µg/mL and an Activity [15] of 9 log10CFU/ml. For the same compound, the FIC [16] was 1.5, the MIC [17] was 2 µg/mL and the MIC [18] was 1 µg/mL. The MIC [19] was 2 µg/mL, the Activity [20] was 100% and the Activity [21] was 5 log10CFU/ml. It also gave an MIC [22] of 4 µg/mL (≈ 9.47 µM), an MIC [23] of 4 µg/mL (≈ 9.47 µM) and an Activity [24] of 6 log10CFU/ml. The Time [25] was over 24 h, the FIC [26] was 0.135 and the MIC [27] was 4 µg/mL (≈ 9.47 µM). For the same compound, the MIC [28] was 4 µg/mL (≈ 9.47 µM), the “inhibition (INH)” value [29] was 8% and the MIC [30] was 4 µg/mL. For the same compound, the Activity [31] was 2 log10CFU/ml, the MIC [32] was 4 µg/mL (≈ 9.47 µM) and the MIC [33] was 4 µg/mL (≈ 9.47 µM). For the same compound, the MIC [34] was 2 µg/mL, the MIC [35] was 2 µg/mL and the MIC [36] was 4 µg/mL (≈ 9.47 µM). The FIC [37] was 1.5 and the FIC [38] was 1.5.
